Holding throughout (assay): relative viability (nuclei count vs DMSO), 5 days (fraction); higher = more cells survive
Compound in assay [1]: COc1cccc2c1C(=O)c1c(O)c3c(c(O)c1C2=O)C[C@@](O)(C(=O)CO)C[C@@H]3O[C@H]1C[C@H](N)[C@H](O)[C@H](C)O1 [Doxorubicin] + COc1cc2c(Oc3ccc(NC(=O)C4(C(=O)Nc5ccc(F)cc5)CC4)cc3F)ccnc2cc1OCCCN1CCOCC1 [Foretinib] (partner 0.25 µM)
In short, it runs like this: (§1)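 For relative viability, nuclei counts in treated wells were divided by those in vehicle wells. Lung cancer cell lines had been pin-tool dosed in 1536-well plates the day after seeding and cultured for 5 days, then fixed and stained in one step (final 0.05% Triton X-100, 1% formaldehyde, 1 ug/ml Hoechst) and imaged at 4×. Doses were one drug alone or a fixed anchor-drug dose plus five library-drug doses (not always all listed) in √10 steps, and values are duplicate-plate medians.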

Compound in assay [2]: COc1cccc2c1C(=O)c1c(O)c3c(c(O)c1C2=O)C[C@@](O)(C(=O)CO)C[C@@H]3O[C@H]1C[C@H](N)[C@H](O)[C@H](C)O1 [Doxorubicin] + C[C@]1(O)C[C@@H](c2nc(-c3ccc4ccc(-c5ccccc5)nc4c3)c3c(N)nccn32)C1 [Linsitinib] (partner 1 µM)
Summed up:
as §1

Compound in assay [3]: COC1=C(C=C(C=C1)C2=CC3=NC=CN3C(=N2)NC4=C(C=CC=N4)C(=O)N)OC [BAY61-3606] + Cc1cc(Nc2cc(N3CCN(C)CC3)nc(Sc3ccc(NC(=O)C4CC4)cc3)n2)n[nH]1 [Tozasertib] (partner 0.1 µM)
Summed up:
as §1

Compound in assay [4]: COc1cccc2c1C(=O)c1c(O)c3c(c(O)c1C2=O)C[C@@](O)(C(=O)CO)C[C@@H]3O[C@H]1C[C@H](N)[C@H](O)[C@H](C)O1 [Doxorubicin] + CC(C)C[C@H](NC(=O)[C@H](Cc1ccccc1)NC(=O)c1cnccn1)B(O)O [Bortezomib] (partner 0.002 µM)
Summed up: as §1

Consider HCC-827, for which the relative viability in assay [1] (first compound 0.001 µM) was 1.07; in assay [1] (first compound 0.003162 µM), 1; in assay [1] (first compound 0.01 µM) it was 1.05; in assay [1] (first compound 0.03162 µM) it was 0.984; in assay [1] (first compound 0.1 µM), 0.982; in assay [2] (first compound 0.001 µM), 0.922. In addition, the relative viability in assay [2] (first compound 0.003162 µM) amounted to 0.965; in assay [2] (first compound 0.01 µM), 0.969; in assay [2] (first compound 0.03162 µM), 0.921; in assay [2] (first compound 0.1 µM), 0.921; in assay [3] (first compound 0.02 µM), 0.412; in assay [3] (first compound 0.06325 µM), 0.415. Besides, the relative viability in assay [3] (first compound 0.2 µM) was determined as 0.373; in assay [3] (first compound 0.6325 µM), 0.387; in assay [3] (first compound 2 µM), 0.38; in assay [4] (first compound 0.001 µM), 1.05; in assay [4] (first compound 0.003162 µM) it was 1.03; in assay [4] (first compound 0.01 µM), 1.07. Moreover, the relative viability in assay [4] (first compound 0.03162 µM) was 1.01; in assay [4] (first compound 0.1 µM), 0.956.

NCI-H460: the relative viability came to 0.965 in assay [1] (first compound 0.001 µM); 1.09 in assay [1] (first compound 0.003162 µM); 0.843 in assay [1] (first compound 0.01 µM); 0.105 in assay [1] (first compound 0.03162 µM); 0.0481 in assay [1] (first compound 0.1 µM); 0.714 in assay [2] (first compound 0.001 µM). In addition, the relative viability in assay [2] (first compound 0.003162 µM) was found to be 0.687; in assay [2] (first compound 0.01 µM), 0.385; in assay [2] (first compound 0.03162 µM) it was 0.0347; in assay [2] (first compound 0.1 µM), 0.0076; in assay [3] (first compound 0.02 µM), 0.447; in assay [3] (first compound 0.06325 µM), 0.0447. In addition, the relative viability in assay [3] (first compound 0.2 µM) was found to be 0.139; in assay [3] (first compound 0.6325 µM) it was 0.0713; in assay [3] (first compound 2 µM) it was 0.0263; in assay [4] (first compound 0.001 µM) it was 0.981; in assay [4] (first compound 0.003162 µM), 0.964; in assay [4] (first compound 0.01 µM), 0.244. Further, the relative viability came to 0.0223 in assay [4] (first compound 0.03162 µM) and 0.0093 in assay [4] (first compound 0.1 µM).

Regarding NCI-H3122, the relative viability came to 0.959 in assay [1] (first compound 0.001 µM); 0.918 in assay [1] (first compound 0.003162 µM); 0.944 in assay [1] (first compound 0.01 µM); 0.942 in assay [1] (first compound 0.03162 µM); 0.904 in assay [1] (first compound 0.1 µM); 1.05 in assay [2] (first compound 0.001 µM). Also, the relative viability was found to be 0.995 in assay [2] (first compound 0.003162 µM); 1.06 in assay [2] (first compound 0.01 µM); 1.06 in assay [2] (first compound 0.03162 µM); 1 in assay [2] (first compound 0.1 µM); 0.456 in assay [3] (first compound 0.02 µM); 0.262 in assay [3] (first compound 0.06325 µM). For the same cell line, the relative viability in assay [3] (first compound 0.2 µM) is 0.377; in assay [3] (first compound 0.6325 µM) it was 0.438; in assay [3] (first compound 2 µM), 0.305; in assay [4] (first compound 0.001 µM), 1.04; in assay [4] (first compound 0.003162 µM), 0.97; in assay [4] (first compound 0.01 µM), 1.02. The relative viability stood at 1.01 in assay [4] (first compound 0.03162 µM) and 0.957 in assay [4] (first compound 0.1 µM).

NCI-H2347: the relative viability was determined as 0.845 in assay [1] (first compound 0.001 µM); 0.847 in assay [1] (first compound 0.003162 µM); 0.708 in assay [1] (first compound 0.01 µM); 1.02 in assay [1] (first compound 0.03162 µM); 0.714 in assay [1] (first compound 0.1 µM); 0.978 in assay [2] (first compound 0.001 µM). Also, the relative viability in assay [2] (first compound 0.003162 µM) was 0.923; in assay [2] (first compound 0.01 µM), 0.923; in assay [2] (first compound 0.03162 µM), 0.889; in assay [2] (first compound 0.1 µM), 0.959; in assay [3] (first compound 0.02 µM) it was 0.531; in assay [3] (first compound 0.06325 µM), 0.384. Also, the relative viability in assay [3] (first compound 0.2 µM) was determined as 0.394; in assay [3] (first compound 0.6325 µM), 0.427; in assay [3] (first compound 2 µM), 0.32; in assay [4] (first compound 0.001 µM), 1.05; in assay [4] (first compound 0.003162 µM) it was 0.697; in assay [4] (first compound 0.01 µM), 0.955. Further, the relative viability in assay [4] (first compound 0.03162 µM) worked out at 0.908; in assay [4] (first compound 0.1 µM) it was 0.692.

For the cell line EKVX, the relative viability in assay [1] (first compound 0.001 µM) stood at 0.735; in assay [1] (first compound 0.003162 µM), 0.891; in assay [1] (first compound 0.01 µM), 0.912; in assay [1] (first compound 0.03162 µM), 0.831; in assay [1] (first compound 0.1 µM), 0.704; in assay [2] (first compound 0.001 µM) it was 0.996. Further, the relative viability in assay [2] (first compound 0.003162 µM) came out at 0.922; in assay [2] (first compound 0.01 µM), 0.957; in assay [2] (first compound 0.03162 µM), 1.11; in assay [2] (first compound 0.1 µM) it was 0.879; in assay [3] (first compound 0.02 µM), 0.366; in assay [3] (first compound 0.06325 µM), 0.299. The relative viability in assay [3] (first compound 0.2 µM) was determined as 0.383; in assay [3] (first compound 0.6325 µM), 0.436; in assay [3] (first compound 2 µM), 0.16; in assay [4] (first compound 0.001 µM), 0.956; in assay [4] (first compound 0.003162 µM) it was 1.04; in assay [4] (first compound 0.01 µM) it was 1.06. The relative viability was 0.994 in assay [4] (first compound 0.03162 µM) and 0.591 in assay [4] (first compound 0.1 µM).

In the case of NCI-H1355, the relative viability in assay [1] (first compound 0.001 µM) worked out at 0.97; in assay [1] (first compound 0.003162 µM) it was 1.01; in assay [1] (first compound 0.01 µM), 0.884; in assay [1] (first compound 0.03162 µM) it was 0.91; in assay [1] (first compound 0.1 µM), 0.897; in assay [2] (first compound 0.001 µM), 0.793. For the same cell line, the relative viability in assay [2] (first compound 0.003162 µM) was found to be 0.862; in assay [2] (first compound 0.01 µM) it was 0.81; in assay [2] (first compound 0.03162 µM) it was 0.872; in assay [2] (first compound 0.1 µM), 0.785; in assay [3] (first compound 0.02 µM) it was 0.568; in assay [3] (first compound 0.06325 µM), 0.344. Moreover, the relative viability in assay [3] (first compound 0.2 µM) was 0.49; in assay [3] (first compound 0.6325 µM) it was 0.344; in assay [3] (first compound 2 µM) it was 0.214; in assay [4] (first compound 0.001 µM), 1.08; in assay [4] (first compound 0.003162 µM), 1.32; in assay [4] (first compound 0.01 µM), 1.14. Moreover, the relative viability turned out to be 1.28 in assay [4] (first compound 0.03162 µM) and 1.29 in assay [4] (first compound 0.1 µM).

Take NCI-H2228: the relative viability in assay [1] (first compound 0.001 µM) is 0.805; in assay [1] (first compound 0.003162 µM), 0.992; in assay [1] (first compound 0.01 µM) it was 0.689; in assay [1] (first compound 0.03162 µM), 0.651; in assay [1] (first compound 0.1 µM), 0.363; in assay [2] (first compound 0.001 µM), 0.825. The relative viability in assay [2] (first compound 0.003162 µM) turned out to be 0.615; in assay [2] (first compound 0.01 µM), 0.634; in assay [2] (first compound 0.03162 µM), 0.178; in assay [2] (first compound 0.1 µM), 0.311; in assay [3] (first compound 0.02 µM) it was 0.274; in assay [3] (first compound 0.06325 µM) it was 0.173. Further, the relative viability was 0.147 in assay [3] (first compound 0.2 µM); 0.16 in assay [3] (first compound 0.6325 µM); 0.159 in assay [3] (first compound 2 µM); 0.88 in assay [4] (first compound 0.001 µM); 1.05 in assay [4] (first compound 0.003162 µM); 0.617 in assay [4] (first compound 0.01 µM). Also, the relative viability turned out to be 0.254 in assay [4] (first compound 0.03162 µM) and 0.124 in assay [4] (first compound 0.1 µM).

Source of the values: the supplement of paper PMC10307832.
